How the values were obtained:
[1] = Cytotoxicity against dog MDCK cells assessed as cell viability at 30 uM incubated for 48 hrs by celltiter-glo assay; assay type: toxicity, cell-based, Canis lupus familiaris; settings: read-out: Activity
[2] = system: Influenza A virus; assay: Antiviral activity against influenza A virus A/WSN/33(H1N1) infected in MDCK cells assessed as inhibition of viral growth at 30 uM incubated for 48 hrs by microscopic analysis; assay type: functional; set-up: scale not given: the % may be the effect or the level left
[3] = system: Influenza A virus; assay: Antiviral activity against influenza A virus A/WSN/33(H1N1) infected in MDCK cells assessed as inhibition of viral-induced cytopathic effect incubated for 48 hrs by microscopic analysis; assay type: functional, organism-based
[4] = Selectivity index, ratio of CC50 for cytotoxicity against dog MDCK cells assessed as reduction in cell viability to IC50 for antiviral activity against influenza A virus A/WSN/33(H1N1) infected in MDCK cells assessed as inhibition of viral-induced cytopathic effect; assay type: toxicity, cell-based; settings: read-out: Ratio CC50/IC50
[5] = Cytotoxicity against dog MDCK cells assessed as reduction in cell viability incubated for 48 hrs by celltiter-glo assay; assay type: toxicity, cell-based, Canis lupus familiaris
[6] = Selectivity index, ratio of CC50 for cytotoxicity against dog MDCK cells assessed as reduction in cell viability to IC50 for antiviral activity against influenza A virus B/Darwin/58/2019 (Yamagata) infected in MDCK cells assessed as inhibition of viral growth; assay type: toxicity, cell-based; settings: read-out: Ratio CC50/IC50
[7] = system: Influenza A virus; assay: Antiviral activity against influenza A virus B/Sichuan/531/2018 (Victoria) infected in MDCK cells assessed as inhibition of viral growth; assay type: functional, organism-based
[8] = system: Influenza A virus; assay: Antiviral activity against influenza A virus B/Darwin/58/2019 (Yamagata) infected in MDCK cells assessed as inhibition of viral growth; assay type: functional, organism-based
[9] = Selectivity index, ratio of CC50 for cytotoxicity against dog MDCK cells assessed as reduction in cell viability to IC50 for antiviral activity against influenza A virus B/Sichuan/531/2018 (Victoria) infected in MDCK cells assessed as inhibition of viral growth; assay type: toxicity, cell-based; settings: read-out: Ratio CC50/IC50
[10] = system: Erythrocyte; assay: Hemolytic activity in rabbit RBC assessed as hemolysis at 300 uM incubated for 2 hr by spectrophotometry analysis; assay type: toxicity, cell-based, Oryctolagus cuniculus

Row | Structure (SMILES) | viability at 48 h, 30 µM [1] [%] | Activity [2] [%] | IC50 [3] [µM] | selectivity ratio [4] | CC50 at 48 h [5] [µM] | selectivity ratio [6] | IC50 [7] [µM] | IC50 [8] [µM] | selectivity ratio [9] | Activity [10]
1 | CC1(C)CC[C@]2(C(=O)NCCOCCOCCn3cc(COc4cc(C(=O)NCCNC(=O)OCCn5cc(COc6cc(OCc7cn(CCOC(=O)NCCNC(=O)c8cc(OCc9cn(CCOCCOCCNC(=O)[C@]%10%11CCC(C)(C)C[C@H]%10C%10=CC[C@@H]%12[C@@]%13(C)CC[C@H](O)C(C)(C)[C@@H]%13CC[C@@]%12(C)[C@]%10(C)CC%11)nn9)c(OCc9cn(CCOCCOCCNC(=O)[C@]%10%11CCC(C)(C)C[C@H]%10C%10=CC[C@@H]%12[C@@]%13(C)CC[C@H](O)C(C)(C)[C@@H]%13CC[C@@]%12(C)[C@]%10(C)CC%11)nn9)c(OCc9cn(CCOCCOCCNC(=O)[C@]%10%11CCC(C)(C)C[C@H]%10C%10=CC[C@@H]%12[C@@]%13(C)CC[C@H](O)C(C)(C)[C@@H]%13CC[C@@]%12(C)[C@]%10(C)CC%11)nn9)c8)nn7)cc(OCc7cn(CCOC(=O)NCCNC(=O)c8cc(OCc9cn(CCOCCOCCNC(=O)[C@]%10%11CCC(C)(C)C[C@H]%10C%10=CC[C@@H]%12[C@@]%13(C)CC[C@H](O)C(C)(C)[C@@H]%13CC[C@@]%12(C)[C@]%10(C)CC%11)nn9)c(OCc9cn(CCOCCOCCNC(=O)[C@]%10%11CCC(C)(C)C[C@H]%10C%10=CC[C@@H]%12[C@@]%13(C)CC[C@H](O)C(C)(C)[C@@H]%13CC[C@@]%12(C)[C@]%10(C)CC%11)nn9)c(OCc9cn(CCOCCOCCNC(=O)[C@]%10%11CCC(C)(C)C[C@H]%10C%10=CC[C@@H]%12[C@@]%13(C)CC[C@H](O)C(C)(C)[C@@H]%13CC[C@@]%12(C)[C@]%10(C)CC%11)nn9)c8)nn7)c6)nn5)cc(OCc5cn(CCOCCOCCNC(=O)[C@]67CCC(C)(C)C[C@H]6C6=CC[C@@H]8[C@@]9(C)CC[C@H](O)C(C)(C)[C@@H]9CC[C@@]8(C)[C@]6(C)CC7)nn5)c4OCc4cn(CCOCCOCCNC(=O)[C@]56CCC(C)(C)C[C@H]5C5=CC[C@@H]7[C@@]8(C)CC[C@H](O)C(C)(C)[C@@H]8CC[C@@]7(C)[C@]5(C)CC6)nn4)nn3)CC[C@]3(C)C(=CC[C@@H]4[C@@]5(C)CC[C@H](O)C(C)(C)[C@@H]5CC[C@]43C)[C@@H]2C1 | 97.2 | 97.28 | 18.1 | > 1.66 | > 30 |  |  |  |  | 
2 | CC1(C)CC[C@]2(C(=O)O)CC[C@]3(C)C(=CC[C@@H]4[C@@]5(C)CC[C@H](O)C(C)(C)[C@@H]5CC[C@]43C)[C@@H]2C1 [OLEANOLIC_ACID] | 99 | 25.06 |  | > 1.38 | > 100 |  |  |  |  | 
3 | COC(=O)c1cc(OCc2cn(CCOCCOCCOCCNC(=O)c3cc(OCc4cn(CCOCCOCCOCCNC(=O)[C@]56CCC(C)(C)C[C@H]5C5=CC[C@@H]7[C@@]8(C)CC[C@H](O)C(C)(C)[C@@H]8CC[C@@]7(C)[C@]5(C)CC6)nn4)c(OCc4cn(CCOCCOCCOCCNC(=O)[C@]56CCC(C)(C)C[C@H]5C5=CC[C@@H]7[C@@]8(C)CC[C@H](O)C(C)(C)[C@@H]8CC[C@@]7(C)[C@]5(C)CC6)nn4)c(OCc4cn(CCOCCOCCOCCNC(=O)[C@]56CCC(C)(C)C[C@H]5C5=CC[C@@H]7[C@@]8(C)CC[C@H](O)C(C)(C)[C@@H]8CC[C@@]7(C)[C@]5(C)CC6)nn4)c3)nn2)c(OCc2cn(CCOCCOCCOCCNC(=O)c3cc(OCc4cn(CCOCCOCCOCCNC(=O)[C@]56CCC(C)(C)C[C@H]5C5=CC[C@@H]7[C@@]8(C)CC[C@H](O)C(C)(C)[C@@H]8CC[C@@]7(C)[C@]5(C)CC6)nn4)c(OCc4cn(CCOCCOCCOCCNC(=O)[C@]56CCC(C)(C)C[C@H]5C5=CC[C@@H]7[C@@]8(C)CC[C@H](O)C(C)(C)[C@@H]8CC[C@@]7(C)[C@]5(C)CC6)nn4)c(OCc4cn(CCOCCOCCOCCNC(=O)[C@]56CCC(C)(C)C[C@H]5C5=CC[C@@H]7[C@@]8(C)CC[C@H](O)C(C)(C)[C@@H]8CC[C@@]7(C)[C@]5(C)CC6)nn4)c3)nn2)c(OCc2cn(CCOCCOCCOCCNC(=O)c3cc(OCc4cn(CCOCCOCCOCCNC(=O)[C@]56CCC(C)(C)C[C@H]5C5=CC[C@@H]7[C@@]8(C)CC[C@H](O)C(C)(C)[C@@H]8CC[C@@]7(C)[C@]5(C)CC6)nn4)c(OCc4cn(CCOCCOCCOCCNC(=O)[C@]56CCC(C)(C)C[C@H]5C5=CC[C@@H]7[C@@]8(C)CC[C@H](O)C(C)(C)[C@@H]8CC[C@@]7(C)[C@]5(C)CC6)nn4)c(OCc4cn(CCOCCOCCOCCNC(=O)[C@]56CCC(C)(C)C[C@H]5C5=CC[C@@H]7[C@@]8(C)CC[C@H](O)C(C)(C)[C@@H]8CC[C@@]7(C)[C@]5(C)CC6)nn4)c3)nn2)c1 | 100 | 65.08 | 47.1 | > 0.64 | > 30 |  |  |  |  | 
4 | O=C1c2c(O)c(=O)ccn2N([C@@H]2c3ccccc3SCc3c2ccc(F)c3F)[C@@H]2COCCN12 [BALOXAVIR] |  |  | 0.009 | 1650 | 9.56 | 2.53 | 0.07 | 3.78 | 137 | 
5 | CCOC(=O)C1=C[C@@H](OC(CC)CC)[C@H](NC(C)=O)[C@@H](N)C1.O=P(O)(O)O [OSELTAMIVIR PHOSPHATE] | 100 | 89.22 |  | > 55 | > 100 |  | > 100 | > 100 |  | 
6 | CC1(C)CC[C@]2(C(=O)NCCOCCOCCOCCOCCn3cc(COc4cc(C(=O)NCCNC(=O)OCCn5cc(COc6cc(OCc7cn(CCOC(=O)NCCNC(=O)c8cc(OCc9cn(CCOCCOCCOCCOCCNC(=O)[C@]%10%11CCC(C)(C)C[C@H]%10C%10=CC[C@@H]%12[C@@]%13(C)CC[C@H](O)C(C)(C)[C@@H]%13CC[C@@]%12(C)[C@]%10(C)CC%11)nn9)c(OCc9cn(CCOCCOCCOCCOCCNC(=O)[C@]%10%11CCC(C)(C)C[C@H]%10C%10=CC[C@@H]%12[C@@]%13(C)CC[C@H](O)C(C)(C)[C@@H]%13CC[C@@]%12(C)[C@]%10(C)CC%11)nn9)c(OCc9cn(CCOCCOCCOCCOCCNC(=O)[C@]%10%11CCC(C)(C)C[C@H]%10C%10=CC[C@@H]%12[C@@]%13(C)CC[C@H](O)C(C)(C)[C@@H]%13CC[C@@]%12(C)[C@]%10(C)CC%11)nn9)c8)nn7)cc(OCc7cn(CCOC(=O)NCCNC(=O)c8cc(OCc9cn(CCOCCOCCOCCOCCNC(=O)[C@]%10%11CCC(C)(C)C[C@H]%10C%10=CC[C@@H]%12[C@@]%13(C)CC[C@H](O)C(C)(C)[C@@H]%13CC[C@@]%12(C)[C@]%10(C)CC%11)nn9)c(OCc9cn(CCOCCOCCOCCOCCNC(=O)[C@]%10%11CCC(C)(C)C[C@H]%10C%10=CC[C@@H]%12[C@@]%13(C)CC[C@H](O)C(C)(C)[C@@H]%13CC[C@@]%12(C)[C@]%10(C)CC%11)nn9)c(OCc9cn(CCOCCOCCOCCOCCNC(=O)[C@]%10%11CCC(C)(C)C[C@H]%10C%10=CC[C@@H]%12[C@@]%13(C)CC[C@H](O)C(C)(C)[C@@H]%13CC[C@@]%12(C)[C@]%10(C)CC%11)nn9)c8)nn7)c6)nn5)cc(OCc5cn(CCOCCOCCOCCOCCNC(=O)[C@]67CCC(C)(C)C[C@H]6C6=CC[C@@H]8[C@@]9(C)CC[C@H](O)C(C)(C)[C@@H]9CC[C@@]8(C)[C@]6(C)CC7)nn5)c4OCc4cn(CCOCCOCCOCCOCCNC(=O)[C@]56CCC(C)(C)C[C@H]5C5=CC[C@@H]7[C@@]8(C)CC[C@H](O)C(C)(C)[C@@H]8CC[C@@]7(C)[C@]5(C)CC6)nn4)nn3)CC[C@]3(C)C(=CC[C@@H]4[C@@]5(C)CC[C@H](O)C(C)(C)[C@@H]5CC[C@]43C)[C@@H]2C1 | 99.3 | 53.88 |  |  | > 30 |  |  |  |  | Non-Toxic

Source: ChEMBL document CHEMBL5625165, “Nine-valent oleanolic acid conjugates as potent inhibitors blocking the entry of influenza A virus” (Eur J Med Chem, 2023)
